Source: US10087197B2, “Selective extraction of anions from solution” (Western Michigan University Research Foundation, priority 2012, dated 2018)

Assays:
[1] = Liquid-liquid extraction of sulfate from aqueous nitrate solution at pH 14; conditions: 5 M nitrate (NaNO3), 0.044 M sulfate (Na2SO4), 1.25 M NaOH (pH 14); sulfate to nitrate ratio 1:114
Description: In experiments, an aqueous solution containing 5 M nitrate (NaNO3), 0.044 M sulfate (Na2SO4) and 1.25 M NaOH (pH 14), in which the sulfate to nitrate ratio is 1:114 was combined together with an organic phase containing the stoichiometrically (based on the amount of sulfate) required amounts of nano-jar components.

[2] = Preliminary selectivity study: self-assembly reaction with competing anions, sulfate determined gravimetrically as BaSO4; conditions: for encapsulation of sulfate into the product: 1:54 molar ratio of sulfate and nitrate (or perchlorate) anions, gravimetric as BaSO4 after digestion with 6M HCl; for selectivity for sulfate ion in the presence of halides: in the presence of fluoride, chloride and bromide ions; for preference for sulfate anion over nitrate or perchlorate anions: preliminary selectivity studies
Description: A self-assembly reaction using a 1:54 molar ratio of sulfate and nitrate (or perchlorate) anions led to the quantitative encapsulation of sulfate into the product, as determined gravimetrically by precipitation as BaSO4 after digestion with 6M HCl. […] The selectivity for sulfate over nitrate, along with the stability at high (basic) pH is especially relevant for the sulfate-extraction efforts during nuclear waste treatment by vitrification, because it allows liquid-liquid extraction. The methods described herein also offer the benefit of recyclability of the sulfate-encapsulating assemblies. The encapsulating host assemblies can be recovered by stirring the dry residue obtained after BaSO4 precipitation (containing CuCl2, Hpz and Et3NHCl) with excess Et3N in DMF. Following such mixing, the characteristic absorption at 599 nm indicates the re-assembly of the [cis-Cu^II(μ-OH)(μ-pz)]n rings.

[3] = Thermal stability of rings on recrystallization from boiling n-butanol; format: physicochemical; conditions: recrystallization from boiling n-butanol (b.p.=118° C.)
Procedure: (Bu4N)2[SO4^2−⊂{cis-Cu^II(μ-OH)(μ-pz)}28] can also be crystallized from chlorobenzene, 1,2-dichloroethane or n-butylamine by hexane vapor diffusion, and from CH2Cl2 by Et2O vapor diffusion. SO4^2−⊂{cis-Cu^II(μ-OH)(μ-pz)}31 can also be crystallized as the Bu4N-salt from chlorobenzene. Moreover, crystals of (Bu4N)2[SO4^2−⊂{cis-Cu^II(μ-OH)(μ-pz)}28] were also obtained by recrystallization from boiling n-butanol (b.p.=118° C.), indicating stability of the rings at that temperature.

[4] = Solubility of nano-jar aggregates and polymer in solvents; format: physicochemical; conditions: dark blue powder; for solubility in a wide variety of solvents: CCl4, CS2, aromatic hydrocarbons, ethers, ketones, esters, nitriles, amines, halogenated and nitro compounds, DMF and DMSO
Description: The unusually high solubility of (Bu4N)2[SO4^2−⊂{cis-Cu^II(μ-OH)(μ-pz)}6+12+10], and (Bu4N)2[SO4^2−⊂{cis-Cu^II(μ-OH)(μ-pz)}8+14+9]
Production of Host 1 and Host 2 via depolymerisation of [Cu^II(μ-OH)(μ-pz)]∞ includes the steps of combining aqueous solutions of CuSO4 and KOH/Hpz (1:2:1 molar ratio), which results in the formation of a blue-purple precipitate (Scheme 1). […] Elemental analysis results concur with the formula [Cu(OH)(pz)] (for C3H4CuN2O, M.W.=147.62, calculated/found: C, 24.4124.25%; H, 2.73/2.72%; N, 18.9818.40%). The structure of this intractable material likely consists of linear polymeric chains resulting from an all-trans arrangement of the pyrazole and OH moieties about the copper centers, similar to the ones found in [Cu^II(μ-pz)2]∞.
(Bu4N)HSO4 or (Bu4N)2SO4 can be added to a suspension of [Cu(μ-OH)(μ-pz)]∞ in THF or toluene, which leads to the immediate formation of a deep blue solution, and gradual dissolution of the solid. […] Hexane vapor diffusion to a toluene solution is then used to obtain dark blue single crystals in the form of blocks and thin plates.
In particular, one embodiment includes anion-encapsulating aggregates based on encapsulating host assemblies such as {cis-Cu^II(μ-OH)(μ-4-Mepz)}27 (“Host 13”), {cis-Cu^II(μ-OH)(μ-4-Mepz)}28(“Host 14”), {cis-Cu^II(μ-OH)(μ-4-Mepz)}29(“Host 15”), {cis-Cu^II(μ-OH)(μ-4-Mepz)}30(“Host 16”), {cis-Cu^II(μ-OH)(μ-4-Mepz)}31(“Host 17”), and {cis-Cu^II(μ-OH)(μ-4-Mepz)}32(“Host 18”). These alkyl ligand-bound pyrazole anion-encapsulating aggregates include 4-methylpyrazole (“4-Mepz”) and are somewhat soluble in pentane, hexane and cyclohexane. Hosts 13, 15, and 17 selectively encapsulate both carbonate and sulfate anions. Hosts 14 and 18 selectively encapsulate sulfate anions. Host 16 selectively encapsulates carbonate anions. These encapsulating host assemblies form anion-encapsulating aggregates which are capable of encapsulating anions present as contaminants in aqueous-hydrocarbon solvent mixtures, including without limitation in-process nuclear waste.
Another embodiment of an anion-encapsulating host containing a longer chain ligand-bound pyrazole is based on the formation of encapsulating host assemblies including 4-butylpyrazole. Anion-encapsulating aggregates incorporating 4-butylpyrazole are very soluble in pentane, hexane and cyclohexane, and are gradually less soluble in longer hydrocarbons (such as heptane, octane, decalin, and hexadecane). These anion-encapsulating aggregates can be used to encapsulate anions present as contaminants in aqueous-hydrocarbon solvent mixtures, such as those present in in-process nuclear waste.

stability of the rings at temperature [3]	solubility in a wide variety of solvents [4]	solubility in alcohols [4]	solubility in aliphatic hydrocarbons and water [4]	Substance	extraction of sulfate anions from aqueous phase to organic phase [1]	encapsulation of sulfate into the product [2]	selectivity for sulfate ion in the presence of halides [2]	preference for sulfate anion over nitrate or perchlorate anions [2]
				{cis-Cu^II(μ-OH)(μ-pz)}8+14+9 [Host 2]	effectively and selectively extracted	quantitative	Partial selectivity	marked preference
stability	highly soluble	slightly soluble	insoluble	(Bu4N)2[SO4^2−⊂{cis-Cu^II(μ-OH)(μ-pz)}6+12+10]				
				{cis-Cu^II(μ-OH)(μ-pz)}6+12+10 [Host 1]	effectively and selectively extracted	quantitative	Partial selectivity	marked preference
	highly soluble	slightly soluble	insoluble	(Bu4N)2[SO4^2−⊂{cis-Cu^II(μ-OH)(μ-pz)}8+14+9]				
